In US10370391B2, “Hydrogen peroxide-activable, anti-oxidant compounds and methods using same” (Beth Israel Deaconess Medical Center, Inc., priority 2014, dated 2019):

What was measured:
[1] = H2O2 scavenging by peroxalate chemiluminescence (diphenyl oxalate, rubrene); conditions: H2O2 solution 10 μM; HBA alone 10 μM
Protocol: FIG. 21 is a bar graph illustrating H2O2-scavenging by BRAP-encapsulated PLGA microparticles. BRAP-encapsulated PLGA microparticles were incubated in H2O2 solution (10 μM) for 10 minutes, and the level of H2O2 was determined by peroxalate chemiluminesce using rubrene (1 mg) and diphenylperoxalate (10 mg).
Without wishing to be limited by any theory, BRAP could scavenge H2O2 during its H2O2-mediated boronate oxidation. This possibility was investigated using peroxalate chemiluminescence. Peroxalate chemiluminescence has been used as a versatile tool for the detection of a variety of chemical species including fluorescent molecules and H2O2 because of its excellent specificity and simplicity (Hadd, et al., 1999, J. Chem. Educ. 76:1237; Lee, et al., 2011, Bull. Korean Chem. Soc. 32:2187). […] A majority of H2O2 was scavenged by the same concentration of BRAP within 1 minutes.
The ability of the boronate compound to scavenge H2O2 was evaluated by measuring the chemiluminescence intensity after the reaction with diphenyl oxalate solution including rubrene. The boronate (1 μM, or 10 μM) was added in the H2O2 solution (10 μM). After 1 min reaction with H2O2, diphenyl oxalate solution was added to the H2O2 solution, and the chemiluminescence intensity was measured by using a luminometer (Femtomaster FB 12, Zylux Corporation, TN, US; FIG. 13).
The ability of BRAP to scavenge H2O2 was evaluated by measuring the chemiluminescence intensity after the reaction with diphenyl oxalate solution including rubrene. BRAP (1 μM, 5 μM, 10 μM, 20 μM) was added in the H2O2 solution (10 μM). After 1, 5 or 10 min reaction with H2O2, diphenyl oxalate solution was added to the H2O2 solution, and the chemiluminescence intensity was measured by using a luminometer (Femtomaster FB 12, Zylux Corporation, TN, US).

[2] = system: mouse macrophage (RAW 264.7) cells stimulated by LPS; test: Intracellular ROS generation in LPS-stimulated macrophages (DCFH-DA, flow cytometry); format: cell-based; conditions: HBA 0.5 mM; LPS 1 μg/mL
Protocol: (§1) FIG. 4, comprising FIGS. 4A-4F, is a set of graphs, bar graphs and images illustrating anti-oxidant and anti-inflammatory effects of BRAP in vitro. […] The generation of ROS was monitored by flow cytometry as an indicator of DCF fluorescence. Fluorescence was analyzed in 10,000 cells with excitation at 480 nm and emission at 530 nm. FIG. 4C: Protective effect of BRAP on H2O2— stimulated adult rat cardiomyocytes. V=vehicle, *<0.05 vs. V+H2O2 (n=4). […] (n=4/group).
The anti-oxidant activities of BRAP were examined using mouse macrophage (RAW 264.7) and fibroblast (NIH/3T3) cells stimulated by LPS (lipopolysaccharide) (FIGS. 4A-4B). Intracellular ROS production in the stimulated cells was analyzed by flow cytometry using DCFH-DA ([…]-diacetate), which can be oxidized by the action of various intracellular oxidants such as H2O2 and hydroxyl radical to become fluorescent […] (DCF) (Kim, et al., 2011, Biomat. 32:3021; Cho, et al., 2012, Adv. Funct. Mat. 22:4038). Untreated cells have no significant DCF fluorescence.

[3] = system: nitric oxide production in LPS-treated cells; test: Nitric oxide generation in LPS-treated cells (Griess reaction); format: cell-based; conditions: HBA alone
Protocol: as §1
Nitric oxide is one of major sources of oxidative stress and a well-known pro-inflammatory mediator in the pathogenesis of inflammation (Lundberg, et al., 1997, Nature Medicine 3:30). The effects of BRAP on the generation of nitric oxide in LPS-treated cells were studied using a colorimetric assay based on the Griess reaction.

TNF-α = TNF-α level in LPS-stimulated macrophage cells; format: cell-based, mouse
Protocol: as §1
(§2) The anti-inflammatory effects of BRAP on LPS-stimulated cells were investigated by measuring the level of inflammatory cytokines such as TNF-α (tumor necrosis factor-alpha) and iNOS (inducible nitric oxide synthases) (FIGS. 4E-4F). […] These observations indicate that BRAP, as well as BRAP-encapsulated PLGA microparticles, is able to scavenge overproduced H2O2 and serve as a H2O2-activable anti-oxidant. Further, the enhanced anti-oxidant activity of BRAP is derived from the combined effects of H2O2-scavenging boronic esters and HBA generation after H2O2-mediated boronate oxidation.

iNOS = iNOS level in LPS-stimulated macrophage cells; format: cell-based, mouse
Protocol: as §1, §2

hepatic I/R injury = test: Mouse model of hepatic I/R injury; format: in vivo; conditions: ip at reperfusion
Protocol: FIG. 5, comprising FIGS. 5A-5D, is a set of images and bar graphs illustrating beneficial effects of BRAP in hepatic I/R (1 hour ischemia/12 hour reperfusion) injury. FIG. 5A: Hematoxylin and eosin (H/E) staining, DHE staining, and TUNEL staining of mouse liver after injection with HBA or BRAP. FIGS. 5B-5D: Quantitative analysis of serum ALT levels (FIG. 5B), cleaved caspase-3 protein expression (FIG. 5C), and TNF-α protein expression (FIG. 5D) after I/R injury. *p<0.01 relative to Veh I/R. †p<0.05 relative to HBA I/R (n=3˜4/group). Actin protein expression was used as an internal control for protein loading.
Experiments to evaluate whether BRAP reduces ROS generation and inhibits apoptosis were performed in a mouse model of […] I/R injuries. I/R was induced first by 1 hour of ligation of hepatic artery and portal vein followed by reperfusion of hepatic artery. BRAP or HBA was then administrated intraperitoneally (ip) at the time of reperfusion.
Hepatic I/R surgery was performed in 12 week-old male mice. Briefly, mice were anaesthetized, and midline incision was performed for laparotomy. After identifying the portal triad and biliary tree, the main trunk of hepatic artery and portal vein were clamped with vascular clip except for the vasculatures to the right lower lobe to achieve ischemic injury to approximately 70% of the liver. After 1 hour of ischemia, reperfusion was achieved by releasing the vascular clip. No vascular clamp was done for the sham group of mice.
For liver apoptosis assay, terminal deoxynucleotidyl transferase dUTP nick end labeling (TUNEL) staining was performed using a DeadEnd™ Fluorometric TUNEL kit (Promega, Madison, Wis.). Tissue sections were stained for nuclei (4′,6-diamidino-2-phenylindole (DAPI) staining) and apoptotic nuclei (TUNEL staining) and analyzed using a confocal laser scanning microscope. For heart tissues, TUNEL staining was performed using in situ cell death detection Kit, fluorescein (Roche Applied Science, Indianapolis, Ind.). To distinguish cardiomyocyte from non-cardiomyocyte nuclei, triple stain for nuclei (DAPI staining), apoptotic nuclei (TUNEL staining), and cardiomyocytes (α-Actinin staining) was used, and the stained sections were analyzed using confocal microscopy. A minimum of ˜10 high power fields with ˜2000 nuclei/field were counted for each sample.
Heart tissues were collected for molecular analyses were performed in Bae, et al., 2010, Am J Physiol Heart Circ Physiol 299:H1374. For RT-PCR ribosomal 18S primers acted as internal controls and all RT-PCR signals were normalized to the 18S signal of the corresponding RT products. For Western blot analysis, the protein content was measured using BCA assay. Actin protein expression was used as an internal control for protein loading.
The optimal cutting temperature (OCT)-embedded tissues were fixed in 4% paraformaldehyde. Tissue sections were incubated with 5 μM dihydroethidium (DHE, Sigma-Aldrich) at 37° C. for 30 min in a humidified chamber protected from light. Then, 4′,6-diamidino-2-phenylindole (DAPI) was applied. Images were acquired by confocal fluorescence microscope.

OCc1ccc(O)cc1 [HBA, 4-hydroxybenzyl alcohol, reference compound]
chemiluminescence intensity (H2O2 scavenging) [1]: did not reduce chemiluminescence intensity | inhibition of LPS-induced ROS generation [2]: moderate inhibitory effects | concentration at which nitric oxide production was inhibited [3]: higher than 0.5 mM | TNF-α level (TNF-α): reduced the expression of TNF-α but only at a higher dose than BRAP | iNOS level (iNOS): failed to reduce iNOS level | ROS generation (DHE staining) in liver (hepatic I/R injury): suppressed | protection from I/R-induced liver damage (serum ALT) (hepatic I/R injury): much less potent protective effect | hepatic damages (histology, H/E) (hepatic I/R injury; 1 hour ischemia/12 hour reperfusion, same dose of HBA and BRAP): minimal therapeutic effects | TNF-α protein expression (hepatic I/R injury; same dose of HBA and BRAP): minimal inhibitory effects | cleaved caspase-3 protein expression (hepatic I/R injury; same dose of HBA and BRAP): minimal inhibitory effects | hepatic apoptosis (TUNEL) (hepatic I/R injury; same dose of HBA and BRAP): modest inhibitory effects
